Source: PMC5540273, “Progress towards a public chemogenomic set for protein kinases and a call for contributions” (PLoS ONE, 2017)

Assays:
Experiment in all cases: KINOMEscan competition binding
[1] = target: T1, GCN2(Kin.Dom.2,S808G) (Homo sapiens, UniProt Q9P2K8, S808G); settings: read-out: %Inh GCN2(Kin.Dom.2,S808G)
T1 sequence (Q9P2K8 590-1001 S808G limits assumed): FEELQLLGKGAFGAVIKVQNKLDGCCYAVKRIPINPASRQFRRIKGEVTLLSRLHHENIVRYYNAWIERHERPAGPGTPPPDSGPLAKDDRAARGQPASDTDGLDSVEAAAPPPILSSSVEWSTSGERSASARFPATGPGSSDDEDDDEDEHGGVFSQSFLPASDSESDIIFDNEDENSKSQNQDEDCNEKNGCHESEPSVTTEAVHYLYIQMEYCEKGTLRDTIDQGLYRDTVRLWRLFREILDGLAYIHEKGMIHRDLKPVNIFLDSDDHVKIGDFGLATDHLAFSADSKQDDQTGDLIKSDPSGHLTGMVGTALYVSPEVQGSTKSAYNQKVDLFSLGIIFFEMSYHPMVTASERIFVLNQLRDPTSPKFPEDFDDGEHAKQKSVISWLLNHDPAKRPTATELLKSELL

[2] = target: CAMKK2 (Homo sapiens, UniProt Q96RR4); settings: read-out: %Inh CAMKK2
CAMKK2, sequence (Q96RR4 whole entry): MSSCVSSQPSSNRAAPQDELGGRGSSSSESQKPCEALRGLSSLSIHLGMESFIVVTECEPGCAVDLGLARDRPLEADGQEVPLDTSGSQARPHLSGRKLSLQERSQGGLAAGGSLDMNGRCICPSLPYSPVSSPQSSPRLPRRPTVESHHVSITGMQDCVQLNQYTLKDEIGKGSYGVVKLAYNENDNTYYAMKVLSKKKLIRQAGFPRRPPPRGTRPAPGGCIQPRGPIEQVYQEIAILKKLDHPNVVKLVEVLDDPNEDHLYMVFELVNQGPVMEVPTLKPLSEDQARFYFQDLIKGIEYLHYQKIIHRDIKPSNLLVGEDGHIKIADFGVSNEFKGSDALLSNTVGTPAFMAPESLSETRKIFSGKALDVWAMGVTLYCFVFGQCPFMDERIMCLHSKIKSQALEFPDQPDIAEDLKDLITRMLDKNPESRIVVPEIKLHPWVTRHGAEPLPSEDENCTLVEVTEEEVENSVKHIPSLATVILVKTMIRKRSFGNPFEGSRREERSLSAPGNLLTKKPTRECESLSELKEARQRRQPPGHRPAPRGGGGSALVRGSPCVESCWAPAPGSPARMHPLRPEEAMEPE

[3] = target: LIMK2 (Homo sapiens, UniProt P53671); settings: read-out: %Inh LIMK2
LIMK2, sequence (P53671 whole entry): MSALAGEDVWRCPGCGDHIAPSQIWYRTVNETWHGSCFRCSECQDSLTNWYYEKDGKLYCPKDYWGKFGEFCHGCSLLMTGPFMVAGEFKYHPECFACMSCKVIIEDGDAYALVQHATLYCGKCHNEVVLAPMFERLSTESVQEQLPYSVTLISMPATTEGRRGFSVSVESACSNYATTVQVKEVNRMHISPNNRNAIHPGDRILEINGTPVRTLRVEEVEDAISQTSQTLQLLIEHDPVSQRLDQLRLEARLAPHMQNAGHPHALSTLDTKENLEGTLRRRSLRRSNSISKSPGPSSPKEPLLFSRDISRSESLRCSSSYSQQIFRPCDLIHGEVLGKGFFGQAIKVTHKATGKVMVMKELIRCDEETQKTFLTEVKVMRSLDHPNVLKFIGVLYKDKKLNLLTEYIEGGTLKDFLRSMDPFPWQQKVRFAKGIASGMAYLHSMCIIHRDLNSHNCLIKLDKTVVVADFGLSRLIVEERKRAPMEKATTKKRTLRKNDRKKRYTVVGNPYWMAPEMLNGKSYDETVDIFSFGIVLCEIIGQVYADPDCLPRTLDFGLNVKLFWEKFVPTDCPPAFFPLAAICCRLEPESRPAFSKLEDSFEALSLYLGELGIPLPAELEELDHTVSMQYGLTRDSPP

[4] = target: T2, AXL (Homo sapiens, UniProt P30530); settings: read-out: %Inh AXL
T2 sequence (P30530 26-894): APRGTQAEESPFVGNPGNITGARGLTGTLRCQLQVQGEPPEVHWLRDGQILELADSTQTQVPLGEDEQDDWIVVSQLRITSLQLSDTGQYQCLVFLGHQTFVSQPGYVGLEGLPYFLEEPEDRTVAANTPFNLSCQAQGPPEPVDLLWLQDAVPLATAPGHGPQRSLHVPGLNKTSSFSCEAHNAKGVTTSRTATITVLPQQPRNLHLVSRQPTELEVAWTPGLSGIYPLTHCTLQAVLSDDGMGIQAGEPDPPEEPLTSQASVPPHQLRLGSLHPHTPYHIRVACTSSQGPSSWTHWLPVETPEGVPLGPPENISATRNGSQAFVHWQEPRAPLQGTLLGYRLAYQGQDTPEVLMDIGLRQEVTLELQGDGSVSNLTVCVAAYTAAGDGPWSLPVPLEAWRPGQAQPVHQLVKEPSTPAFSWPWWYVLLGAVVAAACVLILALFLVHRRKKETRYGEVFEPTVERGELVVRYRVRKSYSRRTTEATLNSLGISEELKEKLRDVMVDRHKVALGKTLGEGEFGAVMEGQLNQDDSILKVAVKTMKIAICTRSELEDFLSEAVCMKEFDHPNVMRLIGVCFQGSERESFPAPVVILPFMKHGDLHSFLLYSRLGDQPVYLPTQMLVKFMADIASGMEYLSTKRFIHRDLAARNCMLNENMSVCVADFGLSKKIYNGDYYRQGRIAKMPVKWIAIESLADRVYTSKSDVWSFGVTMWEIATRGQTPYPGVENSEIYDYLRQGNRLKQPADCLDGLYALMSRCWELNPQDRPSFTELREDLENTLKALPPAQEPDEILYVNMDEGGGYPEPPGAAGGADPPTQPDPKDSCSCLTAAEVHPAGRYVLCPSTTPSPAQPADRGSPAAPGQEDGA

[5] = target: CAMK1D (Homo sapiens, UniProt Q8IU85); settings: read-out: %Inh CAMK1D
CAMK1D, sequence (Q8IU85 whole entry): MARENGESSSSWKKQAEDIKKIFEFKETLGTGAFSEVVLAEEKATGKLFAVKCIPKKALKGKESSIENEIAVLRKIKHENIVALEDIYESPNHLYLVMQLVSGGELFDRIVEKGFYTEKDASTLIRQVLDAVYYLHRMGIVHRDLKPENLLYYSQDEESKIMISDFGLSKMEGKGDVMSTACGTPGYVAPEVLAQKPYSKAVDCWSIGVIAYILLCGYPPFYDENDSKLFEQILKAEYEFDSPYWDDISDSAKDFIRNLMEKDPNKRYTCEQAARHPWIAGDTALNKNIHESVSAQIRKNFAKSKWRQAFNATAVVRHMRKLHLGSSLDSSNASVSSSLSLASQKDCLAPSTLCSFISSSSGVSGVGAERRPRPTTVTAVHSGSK

[6] = target: ABL1-phosphorylated (Homo sapiens, UniProt P00519); settings: read-out: %Inh ABL1-phosphorylated
ABL1-phosphorylated, sequence (P00519 whole entry): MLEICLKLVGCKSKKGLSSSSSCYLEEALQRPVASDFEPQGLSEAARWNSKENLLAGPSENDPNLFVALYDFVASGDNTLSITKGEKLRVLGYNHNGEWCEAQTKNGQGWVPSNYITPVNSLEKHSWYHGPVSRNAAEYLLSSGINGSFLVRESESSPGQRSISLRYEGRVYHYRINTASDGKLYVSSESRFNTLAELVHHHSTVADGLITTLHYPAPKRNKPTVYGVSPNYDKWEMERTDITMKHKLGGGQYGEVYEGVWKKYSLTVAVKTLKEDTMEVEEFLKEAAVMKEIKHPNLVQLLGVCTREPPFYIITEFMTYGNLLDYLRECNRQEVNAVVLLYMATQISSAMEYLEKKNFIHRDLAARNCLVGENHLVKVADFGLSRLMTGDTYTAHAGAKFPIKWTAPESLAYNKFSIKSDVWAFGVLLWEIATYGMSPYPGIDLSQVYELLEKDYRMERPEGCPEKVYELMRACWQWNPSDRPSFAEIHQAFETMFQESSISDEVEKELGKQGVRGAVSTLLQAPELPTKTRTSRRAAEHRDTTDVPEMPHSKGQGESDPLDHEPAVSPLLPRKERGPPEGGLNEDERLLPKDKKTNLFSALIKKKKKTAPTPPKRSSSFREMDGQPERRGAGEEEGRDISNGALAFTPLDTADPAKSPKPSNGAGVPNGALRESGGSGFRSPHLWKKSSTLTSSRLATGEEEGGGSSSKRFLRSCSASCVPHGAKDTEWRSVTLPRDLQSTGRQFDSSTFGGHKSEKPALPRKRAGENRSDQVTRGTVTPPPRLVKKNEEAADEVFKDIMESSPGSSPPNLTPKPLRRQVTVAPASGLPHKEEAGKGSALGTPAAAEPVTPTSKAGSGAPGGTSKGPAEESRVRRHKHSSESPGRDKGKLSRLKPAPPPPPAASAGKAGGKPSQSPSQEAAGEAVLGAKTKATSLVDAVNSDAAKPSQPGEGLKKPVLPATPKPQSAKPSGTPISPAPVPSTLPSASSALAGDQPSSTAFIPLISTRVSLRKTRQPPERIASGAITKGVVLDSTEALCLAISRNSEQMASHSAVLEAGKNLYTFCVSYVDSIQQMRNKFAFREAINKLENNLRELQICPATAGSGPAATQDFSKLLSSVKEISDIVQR

[7] = target: CDK11 (Homo sapiens, UniProt Q9BWU1); settings: read-out: %Inh CDK11
CDK11, sequence (Q9BWU1 whole entry): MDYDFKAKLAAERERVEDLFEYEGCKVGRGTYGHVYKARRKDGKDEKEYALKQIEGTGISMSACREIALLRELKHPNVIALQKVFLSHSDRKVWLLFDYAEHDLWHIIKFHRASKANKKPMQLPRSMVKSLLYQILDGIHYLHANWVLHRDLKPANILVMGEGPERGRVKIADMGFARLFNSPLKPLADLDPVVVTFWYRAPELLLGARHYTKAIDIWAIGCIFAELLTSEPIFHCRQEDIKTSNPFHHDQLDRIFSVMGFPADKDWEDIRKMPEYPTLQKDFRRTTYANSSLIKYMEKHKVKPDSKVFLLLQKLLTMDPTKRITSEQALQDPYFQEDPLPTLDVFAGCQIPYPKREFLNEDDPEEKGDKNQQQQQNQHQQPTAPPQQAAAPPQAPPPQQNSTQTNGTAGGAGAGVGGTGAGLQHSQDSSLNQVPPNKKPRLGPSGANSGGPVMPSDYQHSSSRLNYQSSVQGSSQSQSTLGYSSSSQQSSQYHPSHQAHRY

[8] = target: CDKL1 (Homo sapiens, UniProt Q00532); settings: read-out: %Inh CDKL1
CDKL1, sequence (Q00532 whole entry): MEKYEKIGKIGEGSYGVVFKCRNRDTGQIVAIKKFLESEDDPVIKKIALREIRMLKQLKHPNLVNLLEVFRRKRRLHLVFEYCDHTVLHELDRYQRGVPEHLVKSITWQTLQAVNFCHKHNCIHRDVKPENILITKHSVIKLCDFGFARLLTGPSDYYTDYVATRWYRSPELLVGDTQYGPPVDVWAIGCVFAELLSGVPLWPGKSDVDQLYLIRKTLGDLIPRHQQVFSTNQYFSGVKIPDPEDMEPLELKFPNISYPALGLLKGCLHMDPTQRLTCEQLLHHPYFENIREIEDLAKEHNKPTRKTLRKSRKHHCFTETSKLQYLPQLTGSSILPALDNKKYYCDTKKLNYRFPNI

[9] = target: T3, EPHB6 (Homo sapiens, UniProt O15197); settings: read-out: %Inh EPHB6
T3 sequence (O15197 32-1021): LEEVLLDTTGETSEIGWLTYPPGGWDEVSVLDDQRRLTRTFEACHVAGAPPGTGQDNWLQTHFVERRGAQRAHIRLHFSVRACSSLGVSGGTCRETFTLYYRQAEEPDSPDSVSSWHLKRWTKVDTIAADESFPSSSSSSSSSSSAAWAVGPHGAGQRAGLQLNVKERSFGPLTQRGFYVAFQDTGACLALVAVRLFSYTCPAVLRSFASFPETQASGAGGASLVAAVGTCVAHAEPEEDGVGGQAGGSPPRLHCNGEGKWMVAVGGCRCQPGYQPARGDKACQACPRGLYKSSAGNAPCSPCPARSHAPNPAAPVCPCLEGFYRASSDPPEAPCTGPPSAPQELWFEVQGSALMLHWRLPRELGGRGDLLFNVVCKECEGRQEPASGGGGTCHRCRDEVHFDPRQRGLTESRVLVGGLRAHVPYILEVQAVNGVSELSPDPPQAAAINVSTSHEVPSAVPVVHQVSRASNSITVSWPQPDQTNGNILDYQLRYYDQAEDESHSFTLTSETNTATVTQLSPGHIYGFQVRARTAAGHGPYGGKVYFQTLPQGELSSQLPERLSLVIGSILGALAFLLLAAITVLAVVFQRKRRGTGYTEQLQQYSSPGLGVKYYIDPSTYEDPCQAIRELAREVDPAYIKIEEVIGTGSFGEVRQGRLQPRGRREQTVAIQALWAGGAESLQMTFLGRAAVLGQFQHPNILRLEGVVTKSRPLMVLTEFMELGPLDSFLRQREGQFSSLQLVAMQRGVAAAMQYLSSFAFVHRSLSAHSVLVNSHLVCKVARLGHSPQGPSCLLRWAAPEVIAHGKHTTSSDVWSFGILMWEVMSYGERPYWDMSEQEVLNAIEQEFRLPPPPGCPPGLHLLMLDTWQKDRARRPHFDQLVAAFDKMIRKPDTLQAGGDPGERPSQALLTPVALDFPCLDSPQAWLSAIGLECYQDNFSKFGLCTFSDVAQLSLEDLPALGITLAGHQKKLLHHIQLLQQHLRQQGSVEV

[10] = target: ABL1-nonphosphorylated (Homo sapiens, UniProt P00519); settings: read-out: %Inh ABL1-nonphosphorylated
ABL1-nonphosphorylated, sequence (P00519 whole entry): as the sequence (P00519 whole entry) above

Work on Cn1cc(-c2cnc(N)c3c(-c4ccc5c(c4)CCN5C(=O)Cc4ccccc4)csc23)cn1 [UNC10225012A] yielded an inhibition at 1 µM [1] of 91.2%, an inhibition at 1 µM [2] of 19% and an inhibition at 1 µM [3] of 55%. For the same compound, the inhibition at 1 µM [4] was 95.9%, the inhibition at 1 µM [5] was 11% and the inhibition at 1 µM [6] was 89%. For the same compound, the inhibition at 1 µM [7] was 18%, the inhibition at 1 µM [8] was 9% and the inhibition at 1 µM [9] was 98.3%. For the same compound, the inhibition at 1 µM [10] was 99.7%.

Work on CS(=O)(=O)Cc1ccc(Nc2nccc(-c3c(-c4cccc(NC(=O)C5CCCCC5)c4)nn4ncccc34)n2)cc1 [UNC10225159A] yielded an inhibition at 1 µM [1] of 0%, an inhibition at 1 µM [2] of 0% and an inhibition at 1 µM [3] of 14%. The inhibition at 1 µM [4] was 18%, the inhibition at 1 µM [5] was 0% and the inhibition at 1 µM [6] was 15%. The inhibition at 1 µM [7] was 0%, the inhibition at 1 µM [8] was 0% and the inhibition at 1 µM [9] was 42%. For the same compound, the inhibition at 1 µM [10] was 8%.

For Cc1ccc(NC(=O)Nc2cccc(C(F)(F)F)c2)cc1 [UNC10225187A], the inhibition at 1 µM [1] was 0%, the inhibition at 1 µM [2] was 19% and the inhibition at 1 µM [3] was 10%. It also gave an inhibition at 1 µM [4] of 0%, an inhibition at 1 µM [5] of 25% and an inhibition at 1 µM [6] of 23%. The inhibition at 1 µM [7] was 20%, the inhibition at 1 µM [8] was 14% and the inhibition at 1 µM [9] was 21%. The inhibition at 1 µM [10] was 49%.

Compound COc1cccc(OC)c1C(=O)Nc1cccc(-c2nn3ccccc3c2-c2ccnc(Nc3cccc(F)c3)n2)c1 [UNC10225310A] has an inhibition at 1 µM [1] of 0%, an inhibition at 1 µM [2] of 0% and an inhibition at 1 µM [3] of 15%. It also gave an inhibition at 1 µM [4] of 30%, an inhibition at 1 µM [5] of 13% and an inhibition at 1 µM [6] of 18%. For the same compound, the inhibition at 1 µM [7] was 0%, the inhibition at 1 µM [8] was 15% and the inhibition at 1 µM [9] was 42%. It also gave an inhibition at 1 µM [10] of 28%.

With O=c1cc(N2CCOCC2)nc2n(Cc3cccc(Cl)c3Cl)c(C3CC3)nn12 [UNC10225469A] the inhibition at 1 µM [1] was 0%, the inhibition at 1 µM [2] was 8% and the inhibition at 1 µM [3] was 8%. The inhibition at 1 µM [4] was 3%, the inhibition at 1 µM [5] was 0% and the inhibition at 1 µM [6] was 20%. For the same compound, the inhibition at 1 µM [7] was 0%, the inhibition at 1 µM [8] was 20% and the inhibition at 1 µM [9] was 33%. The inhibition at 1 µM [10] was 28%.
